Data reported in patent publication US20220071996A1, “ORAL FORMULATIONS OF BRANAPLAM” (NOVARTIS AG, priority 2018, published 2022).
≈ marks a conversion by molar mass, not a printed value. Like-named read-outs stand apart in the source and are kept apart here.

Assays:
[1] = tested on: juvenile dog; assay: 52-week chronic juvenile dog study; format: in vivo
[2] = pH-dependent stability and compatibility with preservatives; format: physicochemical
[3] = solubility of branaplam in selected excipients; format: physicochemical; settings: pH 4, aqueous with cosolvent or surfactant or cyclodextrin, thermodynamic from solid
Experimental: (§1) Solubility of branaplam was evaluated in excipients, other than cyclodextrin, such as Cremophor RH40, Tween 80, PG, PEG300, and glycerol. These excipients and concentrations were selected as they are suitable for paediatric formulations. None of the tested excipients was able to support development of a formulation comprising branaplam at a concentration high enough (i.e. about 2 mg/ml or higher) to keep the dose volume in a suitable range (Table 6).
as §1, with “5a).” for “6).”
Solubility of branaplam was measured as follows: stock solutions for the excipients at target concentrations were prepared using milli-Q water and adjusted using pH 4.0 buffer. […] Suspensions were stirred for 24 hours (using a magnetic stirrer) ensuring sufficient swirling and monitoring the temperature. The suspensions were filtered through 0.45 μm nominal pore size filter (e.g. using a PES syringe), and the concentration of branaplam in the filtrate was measured using HPLC (high performance liquid chromatography). The measurements were performed in duplicate and average of the values are reported.

For `CC1(C)CC(Oc2ccc(-c3ccc(-c4cn[nH]c4)cc3O)nn2)CC(C)(C)N1` [branaplam, 5-(1H-pyrazol-4-yl)-2-(6-((2,2,6,6-tetramethylpiperidin-4-yl)oxy)pyridazin-3-yl)phenol], which nerve findings [1] is on record?
Its nerve findings is “findings of nerve degeneration”.

And the pH-dependent stability [2]?
Its pH-dependent stability is “poor stability under pH 4”.

What about the “compatibility with potassium sorbate” value ([2]; preservative potassium sorbate) of the same compound?
Its value is “incompatibility with potassium sorbate”.

What about the solubility at 24 h ([3]; 2 °C, in Cremophor RH 40 15.0% (w/v), pH 4.0 buffer, 2-8° C., read-out: Solubility (mg/mL) 2-8° C.) of the same compound?
Its solubility at 24 h is 1.19 mg/mL (≈ 3020 µM).

And the solubility at 24 h ([3]; 25 °C, in Cremophor RH 40 15.0% (w/v), pH 4.0 buffer, RT, read-out: Solubility (mg/mL) RT)?
Its solubility at 24 h is 1.32 mg/mL (≈ 3350 µM).

And the solubility at 24 h ([3]; Cremophor RH 40 1.0% (w/v) aqueous solution in pH 4.0 buffer, 2 °C, in Cremophor RH 40 1.0% (w/v), pH 4.0 buffer, 2-8° C., read-out: Solubility (mg/mL) 2-8° C.)?
Its solubility at 24 h is 0.17 mg/mL (≈ 432 µM).

And the solubility at 24 h ([3]; Cremophor RH 40 1.0% (w/v) aqueous solution in pH 4.0 buffer, 25 °C, in Cremophor RH 40 1.0% (w/v), pH 4.0 buffer, RT, read-out: Solubility (mg/mL) RT)?
The solubility at 24 h was 0.28 mg/mL (≈ 712 µM).

And the solubility at 24 h ([3]; Cremophor RH 40 3.5% (w/v) aqueous solution in pH 4.0 buffer, 2 °C, in Cremophor RH 40 3.5% (w/v), pH 4.0 buffer, 2-8° C., read-out: Solubility (mg/mL) 2-8° C.)?
Its solubility at 24 h is 0.44 mg/mL (≈ 1120 µM).

What about the solubility at 24 h ([3]; Cremophor RH 40 3.5% (w/v) aqueous solution in pH 4.0 buffer, 25 °C, in Cremophor RH 40 3.5% (w/v), pH 4.0 buffer, RT, read-out: Solubility (mg/mL) RT) of the same compound?
Its solubility at 24 h is 0.53 mg/mL (≈ 1350 µM).

And the solubility at 24 h ([3]; Cremophor RH 40 7.0% (w/v) aqueous solution in pH 4.0 buffer, 2 °C, in Cremophor RH 40 7.0% (w/v), pH 4.0 buffer, 2-8° C., read-out: Solubility (mg/mL) 2-8° C.)?
The solubility at 24 h was 0.71 mg/mL (≈ 1800 µM).

What about the solubility at 24 h ([3]; Cremophor RH 40 7.0% (w/v) aqueous solution in pH 4.0 buffer, 25 °C, in Cremophor RH 40 7.0% (w/v), pH 4.0 buffer, RT, read-out: Solubility (mg/mL) RT) of the same compound?
Its solubility at 24 h is 0.84 mg/mL (≈ 2130 µM).

What about the solubility at 24 h ([3]; aqueous excipient solution, 2 °C, in Glycerol 5.0% (w/w), 2-8° C., read-out: Solubility (mg/mL) 2-8° C.) of the same compound?
The solubility at 24 h was 0.2 mg/mL (≈ 508 µM).

What about the solubility at 24 h ([3]; aqueous excipient solution, 2 °C, in Glycerol 10.0% (w/w), 2-8° C., read-out: Solubility (mg/mL) 2-8° C.) of the same compound?
Its solubility at 24 h is 0.19 mg/mL (≈ 483 µM).

What about the solubility at 24 h ([3]; aqueous excipient solution, 2 °C, in PEG 300 5.0% (w/w), 2-8° C., read-out: Solubility (mg/mL) 2-8° C.) of the same compound?
The solubility at 24 h was 0.27 mg/mL (≈ 686 µM).

What about the solubility at 24 h ([3]; aqueous excipient solution, 2 °C, in PEG 300 10.0% (w/w), 2-8° C., read-out: Solubility (mg/mL) 2-8° C.) of the same compound?
The solubility at 24 h was 0.34 mg/mL (≈ 864 µM).

What about the solubility at 24 h ([3]; aqueous excipient solution, 2 °C, in PEG 300 25.0% (w/w), 2-8° C., read-out: Solubility (mg/mL) 2-8° C.) of the same compound?
Its solubility at 24 h is 0.87 mg/mL (≈ 2210 µM).

What about the solubility at 24 h ([3]; aqueous excipient solution, 2 °C, in PEG 400 5.0% (w/w), 2-8° C., read-out: Solubility (mg/mL) 2-8° C.) of the same compound?
The solubility at 24 h was 0.21 mg/mL (≈ 534 µM).

And the solubility at 24 h ([3]; aqueous excipient solution, 2 °C, in PEG 400 10.0% (w/w), 2-8° C., read-out: Solubility (mg/mL) 2-8° C.)?
The solubility at 24 h was 0.45 mg/mL (≈ 1140 µM).

What about the solubility at 24 h ([3]; aqueous excipient solution, 2 °C, in PEG 400 25.0% (w/w), 2-8° C., read-out: Solubility (mg/mL) 2-8° C.) of the same compound?
Its solubility at 24 h is 0.93 mg/mL (≈ 2360 µM).

What about the solubility at 24 h ([3]; aqueous excipient solution, 2 °C, in Propylene glycol 5.0% (w/w), 2-8° C., read-out: Solubility (mg/mL) 2-8° C.) of the same compound?
The solubility at 24 h was 0.16 mg/mL (≈ 407 µM).

What about the solubility at 24 h ([3]; aqueous excipient solution, 2 °C, in Propylene glycol 10.0% (w/w), 2-8° C., read-out: Solubility (mg/mL) 2-8° C.) of the same compound?
The solubility at 24 h was 0.18 mg/mL (≈ 457 µM).

What about the solubility at 24 h ([3]; aqueous excipient solution, 2 °C, in Propylene glycol 25.0% (w/w), 2-8° C., read-out: Solubility (mg/mL) 2-8° C.) of the same compound?
The solubility at 24 h was 0.42 mg/mL (≈ 1070 µM).

And the solubility at 24 h ([3]; aqueous excipient solution, 2 °C, in Tween 80 0.5% (w/w), 2-8° C., read-out: Solubility (mg/mL) 2-8° C.)?
Its solubility at 24 h is 0.16 mg/mL (≈ 407 µM).

And the solubility at 24 h ([3]; aqueous excipient solution, 2 °C, in Tween 80 0.8% (w/w), 2-8° C., read-out: Solubility (mg/mL) 2-8° C.)?
The solubility at 24 h was 0.22 mg/mL (≈ 559 µM).

What about the solubility at 24 h ([3]; aqueous excipient solution, 2 °C, in Tween 80 1.5% (w/w), 2-8° C., read-out: Solubility (mg/mL) 2-8° C.) of the same compound?
Its solubility at 24 h is 0.29 mg/mL (≈ 737 µM).

What about the solubility at 24 h ([3]; aqueous excipient solution, 2 °C, in Tween 80 5.0% (w/w), 2-8° C., read-out: Solubility (mg/mL) 2-8° C.) of the same compound?
Its solubility at 24 h is 0.73 mg/mL (≈ 1860 µM).

And the solubility at 24 h ([3]; aqueous excipient solution, 25 °C, in Glycerol 5.0% (w/w), RT, read-out: Solubility (mg/mL) RT)?
The solubility at 24 h was 0.18 mg/mL (≈ 457 µM).

What about the solubility at 24 h ([3]; aqueous excipient solution, 25 °C, in Glycerol 10.0% (w/w), RT, read-out: Solubility (mg/mL) RT) of the same compound?
The solubility at 24 h was 0.22 mg/mL (≈ 559 µM).

And the solubility at 24 h ([3]; aqueous excipient solution, 25 °C, in PEG 300 5.0% (w/w), RT, read-out: Solubility (mg/mL) RT)?
The solubility at 24 h was 0.39 mg/mL (≈ 991 µM).

What about the solubility at 24 h ([3]; aqueous excipient solution, 25 °C, in PEG 300 10.0% (w/w), RT, read-out: Solubility (mg/mL) RT) of the same compound?
Its solubility at 24 h is 0.64 mg/mL (≈ 1630 µM).

And the solubility at 24 h ([3]; aqueous excipient solution, 25 °C, in PEG 300 25.0% (w/w), RT, read-out: Solubility (mg/mL) RT)?
Its solubility at 24 h is 1.61 mg/mL (≈ 4090 µM).

And the solubility at 24 h ([3]; aqueous excipient solution, 25 °C, in PEG 400 5.0% (w/w), RT, read-out: Solubility (mg/mL) RT)?
The solubility at 24 h was 0.39 mg/mL (≈ 991 µM).

And the solubility at 24 h ([3]; aqueous excipient solution, 25 °C, in PEG 400 10.0% (w/w), RT, read-out: Solubility (mg/mL) RT)?
Its solubility at 24 h is 0.63 mg/mL (≈ 1600 µM).

What about the solubility at 24 h ([3]; aqueous excipient solution, 25 °C, in PEG 400 25.0% (w/w), RT, read-out: Solubility (mg/mL) RT) of the same compound?
The solubility at 24 h was 1.47 mg/mL (≈ 3740 µM).

And the solubility at 24 h ([3]; aqueous excipient solution, 25 °C, in Propylene glycol 5.0% (w/w), RT, read-out: Solubility (mg/mL) RT)?
Its solubility at 24 h is 0.27 mg/mL (≈ 686 µM).

And the solubility at 24 h ([3]; aqueous excipient solution, 25 °C, in Propylene glycol 10.0% (w/w), RT, read-out: Solubility (mg/mL) RT)?
Its solubility at 24 h is 0.37 mg/mL (≈ 940 µM).

What about the solubility at 24 h ([3]; aqueous excipient solution, 25 °C, in Propylene glycol 25.0% (w/w), RT, read-out: Solubility (mg/mL) RT) of the same compound?
The solubility at 24 h was 0.94 mg/mL (≈ 2390 µM).

What about the solubility at 24 h ([3]; aqueous excipient solution, 25 °C, in Tween 80 0.5% (w/w), RT, read-out: Solubility (mg/mL) RT) of the same compound?
Its solubility at 24 h is 0.25 mg/mL (≈ 635 µM).

And the solubility at 24 h ([3]; aqueous excipient solution, 25 °C, in Tween 80 0.8% (w/w), RT, read-out: Solubility (mg/mL) RT)?
Its solubility at 24 h is 0.28 mg/mL (≈ 712 µM).

What about the solubility at 24 h ([3]; aqueous excipient solution, 25 °C, in Tween 80 1.5% (w/w), RT, read-out: Solubility (mg/mL) RT) of the same compound?
The solubility at 24 h was 0.41 mg/mL (≈ 1040 µM).

What about the solubility at 24 h ([3]; aqueous excipient solution, 25 °C, in Tween 80 5.0% (w/w), RT, read-out: Solubility (mg/mL) RT) of the same compound?
The solubility at 24 h was 0.89 mg/mL (≈ 2260 µM).

And the solubility at 24 h ([3]; aqueous excipient stock solution, 2 °C, in Cremophor RH 40 1.0% (w/w), 2-8° C., read-out: Solubility (mg/mL) 2-8° C.)?
The solubility at 24 h was 0.17 mg/mL (≈ 432 µM).
